Data from patent publication US20260306460A1, “COMPOSITION FOR REMOVING AND INHIBITING SENESCENT CELLS, AND USES THEREOF” (LIFECEUTIX CO., LTD., priority 2023, published 2026).

Key:
[1] = tested on: bleomycin-induced pulmonary fibrosis mice; experiment: Bleomycin-induced pulmonary fibrosis mice, Example 31, Table 56; type: in vivo, mouse; details: untreated = 100%
In short: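 Mice with bleomycin-induced pulmonary fibrosis, untreated or given test compound, with vehicle-only controls. Lung tissue collected for RNA extraction and qRT-PCR analysis.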

[2] = tested on: carbon tetrachloride-induced liver fibrosis C57BL6J mice; experiment: Carbon tetrachloride liver disease in mice (p16, IL6, Col1a1 mRNA, AST), Example 26, Table 50; type: in vivo, mouse; details: daily for 21 days, untreated 100%; for Col1a1 mRNA / IL6 mRNA / p16 mRNA: liver
Experimental: Eight-week-old male C57BL6J mice (KRIBB Laboratory Animal Resource Center) were acclimated to the experimental environment for one week. Carbon tetrachloride (CCL4) was administered intraperitoneally at a concentration of 0.5 μl/g, and aging was induced for at least six weeks. The aging-induced mice were randomly assigned to experimental and control groups. […] The control group received only the solution in the same volume. After the drug administration was terminated, mice were sacrificed, and RNA was extracted from the liver in the same manner as in Example 7-2 of WO2023-085787 A1, and qRT-PCR was performed using the synthesized cDNA. […] The mRNA and AST amounts after aging was induced were calculated as 100% and compared with the mRNA amount of p16 after treatment with the test compound.

[3] = tested on: cigarette smoke-induced COPD C57BL6J mice; experiment: Cigarette smoke COPD in mice (p16, IL6 mRNA, alveoli size), Example 25, Table 49; type: in vivo, mouse; details: for Airspace enlargement: average size of alveoli, untreated 38.7 (±0.6); for IL6 mRNA / p16 mRNA: lung, daily for 21 days, untreated 100%
Experimental: Eight-week-old male C57BL6J mice (KRIBB Laboratory Animal Resource Center) were acclimated to the experimental environment for one week. After exposure to standard cigarette smoke (costa monitoring cigarette 7) for 5 hours per day, 5 days per week for 6 months, chronic obstructive pulmonary disease (COPD) was induced. Mice with induced COPD were randomly assigned to experimental and control groups. […] LX-3002 was mixed in distilled water with 4% DMSO, 30% PEG300, 5% tween80 and administered orally at a concentration of 10 mg/kg daily for 21 days. LX-5701 was mixed in PBS and administered orally at a concentration of 360 mg/kg daily for 21 days. LX-6807 was mixed in saline and administered intraperitoneally at a concentration of 1 mg/kg daily for 21 days. The control group received only the solution in the same volume. After the end of drug administration, mice were sacrificed in the same manner as in Example 7-2 of WO2023-085787 A1, RNA was extracted from lung tissue, and qRT-PCR (quantitative real-time PCR) was performed and analyzed using the synthesized cDNA. […] The amount of mRNA after aging was calculated as 100%, and the results after treatment with the test compound were compared. Furthermore, paraffin sections were stained with hematoxylin/eosin (H/E), and the size of alveoli was measured under a light microscope to assess the degree of lung function impairment.

senescent cells = experiment: Viability of senescent cells (CellTiter-Glo), Example 17, Table 13; details: Homo sapiens, read-out: Survival (%)
Experimental: Cells induced to undergo senescence by doxorubicin treatment were treated with test compound at designated concentrations and measured using the CellTiter-Glo Luminescent Cell Viability Assay (Promega).

Compound | Lung p16 mRNA [1] | Col1a1 mRNA [1] | Col1a1 mRNA [2] | IL6 mRNA [2] | p16 mRNA [2] | Serum AST [2] | Airspace enlargement [3] | IL6 mRNA [3] | p16 mRNA [3] | viability at 1.1 µM (senescent cells) [%] | viability at 10 µM (senescent cells) [%] | viability at 30 µM (senescent cells) [%]
O=C(C(C[N+](=O)[O-])=NO)N1CCN(C(c2ccc(Cl)cc2)c2ccc(Cl)cc2)CC1 [LX-403] | 32 (±1.4) % | 44 (±3.1) % | – | – | – | – | – | – | – | – | – | –
S=C(N/N=C1\CCCc2cccnc21)N1CCN(c2ccccn2)CC1 [LX-801] | 48 (±4.8) % | 43 (±10.6) % | – | – | – | – | – | – | – | – | – | –
C[C@@H]1CC[C@@]23C[C@H](O)C(=O)[C@@]2(O)[C@]1(C)[C@H](OC(=O)CCl)C[C@@H](C1=CCn2c(=O)n(-c4ccccc4)c(=O)n2C1)[C@@H]3C [LX-1801, (2S,3aS,4S,5R,7R,8S,8aS,11R)-7-(1,3-Dioxo-2-phenyl-2,3,5,8-tetrahydro-1H-[1,2,4]triazolo[1,2-a]pyridazin-6-yl)-2,3a-dihydroxy-4,8,11-trimethyl-3-oxooctahydro-1H-4,8a-propanoazulen-5-yl 2-Chloroacetate] | 53 (±13.7) % | 38 (±20.8) % | – | – | – | – | – | – | – | – | – | –
CCCC\C=C/C=C/C=C\CCCCCCCC(=O)O [LX-2707, Punicic acid] | – | – | 76 (±2.5) % | 56 (±2.1) % | 68 (±1.6) % | 79 (±5.6) % | 36.4 (±1.9) μm | 76 (±6.7) % | 78 (±5.5) % | – | – | –
COC(=O)[C@H]1Cc2c([nH]c3ccccc23)[C@H](c2ccc(S(C)(=O)=O)cc2)N1C(=O)CCl [LX-5401, methyl (1S,3R)-2-(2-chloroacetyl)-1-(4-(methylsulfonyl)phenyl)-2,3,4,9-tetrahydro-1H-pyrido[3,4-b]indole-3-carboxylate] | 67 (±8.1) % | 59 (±12.8) % | – | – | – | – | – | – | – | 99.5 | 66 | 24.6
C#CC(=O)N1[C@@H](CCCC)Cc2cc(OC)ccc2[C@@H]1c1ccc(NC23CC4CC(CC(C4)C2)C3)cc1 [LX-5411] | 61 (±13.2) % | 44 (±11.1) % | – | – | – | – | – | – | – | 75.4 | 2.8 | –
O=C1C2CCN(CC2)C1CNC(=O)C(F)(F)F (stereo not drawn) [LX-5701] | – | – | 62 (±6.7) % | 53 (±17.6) % | 70 (±6.2) % | 77 (±8.0) % | 31.9 (±2.4) μm | 59 (±16.8) % | 70 (±7.8) % | 91.4 | 19.3 | –
Cc1cccc([C@H](C)c2cnc[nH]2)c1C [LX-6807, Dexmedetomidine] | – | – | 51 (±3.1) % | 58 (±2.6) % | 67 (±3.0) % | 75 (±1.4) % | 30.4 (±1.5) μm | 48 (±5.6) % | 68 (±2.4) % | 95.1 | 42.5 | 6.9
Tocofersolan [LX-3001] | – | – | 71 (±2.4) % | 65 (±3.4) % | 76 (±3.7) % | 82 (±4.5) % | 37.1 (±2.7) μm | 79 (±9.9) % | 83 (±5.0) % | – | – | –
